The target in experiment [1] is T1, Adenosine receptor A2a (Homo sapiens, UniProt P29274). Briefly: Antagonist activity at human adenosine 2A receptor overexpressed in HEK293 cells preincubated for 0.5 hrs followed by NECA stimulation by GloSensor cAMP assay. The experiment is classed as functional, cell-based. A general note: Cyclic AMP is a second messenger, typically raised through Gs and lowered through Gi signalling.

Experiment [2] has as its target T2, Adenosine receptor A2b (Homo sapiens, UniProt P29275).
T2 sequence (P29275 whole entry): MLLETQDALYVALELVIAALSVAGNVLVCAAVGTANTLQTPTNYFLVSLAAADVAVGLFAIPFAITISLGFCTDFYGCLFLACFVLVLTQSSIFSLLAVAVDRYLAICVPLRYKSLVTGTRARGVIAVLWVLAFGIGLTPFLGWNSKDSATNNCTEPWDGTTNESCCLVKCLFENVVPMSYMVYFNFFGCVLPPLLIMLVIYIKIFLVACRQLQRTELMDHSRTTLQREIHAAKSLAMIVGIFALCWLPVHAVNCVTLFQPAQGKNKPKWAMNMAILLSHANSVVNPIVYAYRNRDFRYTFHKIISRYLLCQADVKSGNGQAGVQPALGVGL
Kind of experiment: Antagonist activity at human adenosine 2B receptor overexpressed in HEK293 cells preincubated for 0.5 hrs followed by NECA stimulation by GloSensor cAMP assay. Format: functional, cell-based.

Another experiment is filed under the species Homo sapiens. Kind of experiment: Selectivity ratio of IC50 for antagonist activity at human adenosine 2A receptor overexpressed in HEK293 cells to IC50 for antagonist activity at human adenosine 2B receptor overexpressed in HEK293 cells. The experiment is classed as cell-based.
Experiment [3] addresses T1, Adenosine receptor A2a. Kind of experiment: Antagonist activity at adenosine 2A receptor (unknown origin).
The target of experiment [4] is T2, Adenosine receptor A2b. Kind of experiment: Antagonist activity at adenosine 2B receptor (unknown origin). Format: functional.

As usually defined, the IC50 is the concentration that gives 50% inhibition. Lower therefore signals greater potency in that assay.

T1 sequence (P29274 whole entry): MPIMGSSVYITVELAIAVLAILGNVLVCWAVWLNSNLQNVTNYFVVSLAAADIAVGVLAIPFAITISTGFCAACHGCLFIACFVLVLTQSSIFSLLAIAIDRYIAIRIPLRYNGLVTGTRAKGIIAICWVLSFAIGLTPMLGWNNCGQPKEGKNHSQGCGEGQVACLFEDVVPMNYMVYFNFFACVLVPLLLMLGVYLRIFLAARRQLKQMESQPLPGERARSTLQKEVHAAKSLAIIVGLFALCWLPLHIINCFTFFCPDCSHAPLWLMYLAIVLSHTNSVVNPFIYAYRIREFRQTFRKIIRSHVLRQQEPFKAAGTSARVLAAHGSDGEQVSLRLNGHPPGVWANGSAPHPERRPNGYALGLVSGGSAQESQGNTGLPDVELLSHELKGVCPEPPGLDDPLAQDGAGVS

Take `Cc1c(C#N)cccc1-c1cc(-c2cn(Cc3c[nH]c4cccc(Cl)c34)nn2)nc(N)n1`: the IC50 amounted to 172 nM against Adenosine receptor A2a [1] and 316 nM on Adenosine receptor A2b [2]. Moreover, the Ratio IC50 in the experiment filed under Homo sapiens came to 0.5.
On the same counts, the results for `Cc1c(C#N)cccc1-c1cc(-c2cn(Cc3c[nH]c4cnccc34)nn2)nc(N)n1` are 1910 nM, 11.1 nM and 172.
With `COC(=O)c1ccc2c(Cn3cc(-c4cc(-c5cccc(C#N)c5C)nc(N)n4)nn3)c[nH]c2c1`, the IC50 against Adenosine receptor A2a [1] was more than 100000 nM; at Adenosine receptor A2b [2] it was 97.7 nM.
For `Cc1c(C#N)cccc1-c1cc(-c2cn(Cc3csc4c3CCCC4)nn2)nc(N)n1`, the values for the IC50 at Adenosine receptor A2a [1] and at Adenosine receptor A2b [2] were 11.6 nM and 101 nM, respectively. For the same molecule, the Ratio IC50 in the experiment listed under Homo sapiens is 0.1.
As for `Cc1c(C#N)cccc1-c1cc(-c2cn(Cc3c[nH]c4cccnc34)nn2)nc(N)n1`, on Adenosine receptor A2b [2], the IC50 is 3.6 nM.
Consider `Cc1c(C#N)cccc1-c1cc(-c2cn(Cc3n[nH]c4ccccc34)nn2)nc(N)n1`, for which the IC50 at Adenosine receptor A2a [1] is 129 nM; on Adenosine receptor A2b [2] it was 41.7 nM. The Ratio IC50 in the experiment listed under Homo sapiens turned out to be 3.1.
As for `Cc1c(C#N)cccc1-c1cc(-c2cn(Cc3c[nH]c4cc(F)ccc34)nn2)nc(N)n1`, the concentration for half-maximal inhibition (IC50) was determined as 120 nM against Adenosine receptor A2a [1] and 13.7 nM against Adenosine receptor A2b [2]. Further, the Ratio IC50 in the experiment filed under Homo sapiens was found to be 8.8.
On the same counts, the results for `Cc1c(C#N)cccc1-c1cc(-c2cn(Cc3c[nH]c4ccncc34)nn2)nc(N)n1` are 169 nM, 11.6 nM and 14.6.
Turning to `Cc1c(C#N)cccc1-c1cc(-c2cn(Cc3cccc4cc[nH]c34)nn2)nc(N)n1`, the values for the 50% inhibitory concentration (IC50) at Adenosine receptor A2a [1] and at Adenosine receptor A2b [2] were 7860 nM and more than 100000 nM, respectively.
For the molecule `Cc1c(C#N)cccc1-c1cc(-c2cn(Cc3c[nH]c4cc(Cl)c(Cl)cc34)nn2)nc(N)n1`, the IC50 stood at 6320 nM against Adenosine receptor A2a [1] and 209 nM against Adenosine receptor A2b [2]. For the same molecule, the Ratio IC50 in the experiment listed under Homo sapiens is 30.2.
For `Cc1ccc2[nH]cc(Cn3cc(-c4cc(-c5cccc(C#N)c5C)nc(N)n4)nn3)c2c1`, the results for the IC50 at Adenosine receptor A2a [1] and against Adenosine receptor A2b [2] were 103 nM and 43.4 nM, respectively. Also, in the experiment listed under Homo sapiens, the Ratio IC50 came to 2.4.
The like results for `Cc1c(C#N)cccc1-c1cc(-c2cn(Cc3c[nH]c4ccc(OC5CCCC5)cc34)nn2)nc(N)n1` were, in that order, 97.4 nM, 349 nM and 0.3.
`Cc1c(C#N)cccc1-c1cc(-c2cn(Cc3c[nH]c4ccc(S(C)(=O)=O)cc34)nn2)nc(N)n1`: the IC50 against Adenosine receptor A2a [1] was 18.3 nM; against Adenosine receptor A2b [2], 9.7 nM. Further, the Ratio IC50 in the experiment listed under Homo sapiens turned out to be 1.9.
The like results for `COc1ccc2c(Cn3cc(-c4cc(-c5cccc(C#N)c5C)nc(N)n4)nn3)c[nH]c2c1` were, in that order, 133 nM, 27.6 nM and 4.8.
The like results for `Cc1c(C#N)cccc1-c1cc(-c2cn(Cc3csc4ccccc34)nn2)nc(N)n1` were, in that order, 34.8 nM, 131 nM and 0.3.
On the same counts, the results for `Cc1ccc2c(Cn3cc(-c4cc(-c5cccc(C#N)c5C)nc(N)n4)nn3)c[nH]c2c1` are 324 nM, 48.6 nM and 6.7.
As for `Cc1c(C#N)cccc1-c1cc(-c2cn(Cc3cnc4ccccn34)nn2)nc(N)n1`, the IC50 on Adenosine receptor A2a [1] and against Adenosine receptor A2b [2] was more than 100000 nM throughout.
Take `Cc1c(C#N)cccc1-c1cc(-c2cn(Cc3c[nH]c4cc(Cl)ccc34)nn2)nc(N)n1`: the figures for the IC50 against Adenosine receptor A2a [1] and against Adenosine receptor A2b [2] were 753 nM and 55.8 nM, respectively. Besides, the Ratio IC50 in the experiment filed under Homo sapiens came out at 13.5.
For `Cc1c(C#N)cccc1-c1cc(-c2cn(Cc3c[nH]c4ccc(F)cc34)nn2)nc(N)n1`, the figures for the IC50 against Adenosine receptor A2a [1] and on Adenosine receptor A2b [2] were 63.3 nM and 14.3 nM, respectively. The Ratio IC50 in the experiment filed under Homo sapiens worked out at 4.4.
On the same counts, the results for `Cc1c(C#N)cccc1-c1cc(-c2cn(Cc3c[nH]c4ccc(OC(C)C)cc34)nn2)nc(N)n1` are 69.9 nM, 103 nM and 0.7.
Turning to `Cc1c(C#N)cccc1-c1cc(-c2cn(Cc3cc4ccccc4[nH]3)nn2)nc(N)n1`, the IC50 against Adenosine receptor A2b [2] came to 654 nM.
For `Cc1c(C#N)cccc1-c1cc(-c2cn(Cc3c[nH]c4ccc(Cl)cc34)nn2)nc(N)n1`, the IC50 at Adenosine receptor A2a [1] amounted to 244 nM; on Adenosine receptor A2b [2], 45.4 nM. The Ratio IC50 in the experiment filed under Homo sapiens stood at 5.4.
On to `Cc1c(C#N)cccc1-c1cc(-c2cn(Cc3cn(C)c4ccccc34)nn2)nc(N)n1`, for which the IC50 against Adenosine receptor A2a [1] and at Adenosine receptor A2b [2] was more than 100000 nM each time.
As for `Cc1c(C#N)cccc1-c1cc(-c2cn(Cc3ccc4cc[nH]c4c3)nn2)nc(N)n1`, the figures for the IC50 at Adenosine receptor A2a [1] and at Adenosine receptor A2b [2] were 427 nM and 134 nM, respectively. The Ratio IC50 in the experiment filed under Homo sapiens was determined as 3.2.
Turning to `COc1ncc(C2=CCOCC2)c2sc(NC(=O)N3CC[C@@]4(CCCOC4)C3)nc12` [MUVADENANT], the IC50 on Adenosine receptor A2a [3] and against Adenosine receptor A2b [4] was less than 10 nM throughout.
As to `COC(=O)c1ccc2[nH]cc(Cn3cc(-c4cc(-c5cccc(C#N)c5C)nc(N)n4)nn3)c2c1`, the IC50 against Adenosine receptor A2a [1] is 70.2 nM; on Adenosine receptor A2b [2] it was 38.2 nM. In the experiment filed under Homo sapiens, the Ratio IC50 is 1.8.
Take `Cc1c(C#N)cccc1-c1cc(-c2cn(Cc3c[nH]c4cc(C#N)ccc34)nn2)nc(N)n1`: the IC50 at Adenosine receptor A2a [1] stood at 242 nM; against Adenosine receptor A2b [2] it was 2.6 nM. The Ratio IC50 in the experiment listed under Homo sapiens is 93.2.
In the case of `Cc1c(C#N)cccc1-c1cc(-c2cn(Cc3cccc4[nH]ccc34)nn2)nc(N)n1`, the IC50 was 5820 nM against Adenosine receptor A2a [1] and more than 100000 nM against Adenosine receptor A2b [2].
As to `Cc1c(C#N)cccc1-c1cc(-c2cn(Cc3c[nH]c4ncccc34)nn2)nc(N)n1`, the results for the IC50 on Adenosine receptor A2a [1] and against Adenosine receptor A2b [2] were 2260 nM and 215 nM, respectively. Moreover, in the experiment filed under Homo sapiens, the Ratio IC50 is 10.5.
The like results for `Cc1c(C#N)cccc1-c1cc(-c2cn(Cc3c[nH]c4cc(S(C)(=O)=O)ccc34)nn2)nc(N)n1` were, in that order, 431 nM, 3.4 nM and 127.
Take `Cc1c(C#N)cccc1-c1cc(-c2cn(Cc3c[nH]c4cc(OC(C)C)ccc34)nn2)nc(N)n1`: the IC50 at Adenosine receptor A2a [1] stood at 3850 nM; against Adenosine receptor A2b [2], 30.6 nM. The Ratio IC50 in the experiment listed under Homo sapiens stood at 126.
Turning to `Cc1c(C#N)cccc1-c1cc(-c2cn(Cc3c[nH]c4cc(OC5CCCC5)ccc34)nn2)nc(N)n1`, inhibition against Adenosine receptor A2b [2] was half-maximal at 71.6 nM (IC50).
Take `Cc1c(C#N)cccc1-c1cc(-c2cn(Cc3c[nH]c4ccccc34)nn2)nc(N)n1`: the IC50 on Adenosine receptor A2a [1] came to 112 nM; against Adenosine receptor A2b [2], 43.8 nM. Besides, in the experiment filed under Homo sapiens, the Ratio IC50 was found to be 2.6.
On the same counts, the results for `Cc1c(C#N)cccc1-c1cc(-c2cn(Cc3c[nH]c4c(Cl)cccc34)nn2)nc(N)n1` are 1140 nM, 1080 nM and 1.1.
`Cc1c(C#N)cccc1-c1cc(-c2cn(Cc3ccc4[nH]ccc4c3)nn2)nc(N)n1`: the IC50 against Adenosine receptor A2a [1] is 1010 nM; on Adenosine receptor A2b [2], 43.1 nM. The Ratio IC50 in the experiment listed under Homo sapiens amounted to 23.5.
The molecule `COc1ccc2[nH]cc(Cn3cc(-c4cc(-c5cccc(C#N)c5C)nc(N)n4)nn3)c2c1` gave a half-maximal inhibitory concentration (IC50) against Adenosine receptor A2b [2] of 44.7 nM.

The values above are taken from ChEMBL document CHEMBL5528085, “Subtle Structural Changes across the Boundary between A2AR/A2BR Dual Antagonism and A2BR Antagonism: A Novel Class of 2-Aminopyrimidine-Based Derivatives” (J Med Chem, 2024).
